What was measured:
Hepatotoxicity [1] = tested on: Hepatotoxicity;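 as to HepSE Combined Scores: combined hepatic side effect score as listed in the training data of the Drug Induced Liver Injury Prediction System (DILIps)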;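 as to HepSE cholecystitis: Cholecystitis-related hepatic side effect score drawn from the DILIps (drug-induced liver injury prediction) training data set; call rule not given here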;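 as to HepSE elevated liver function tests: hepatic side effect score for raised liver function tests, as recorded in the DILIps training set used for predicting drug-induced liver injury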;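 as to HepSE hepatitis: Hepatitis-related hepatic side effect score taken from the training data of DILIps, a prediction system for drug-induced liver injury; call rule not given here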;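 as to HepSE jaundice: Jaundice-related hepatic side-effect score drawn from the training data of the DILIps (drug-induced liver injury prediction system); call rule not given here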;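 as to HepSE liver fatty: hepatic side effect score for fatty liver, taken from the DILIps training set for predicting drug-induced liver injury; call rule not given here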
Hepatotoxicity [2] = tested on: Hepatotoxicity; remark: listed apart in the source;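 as to HepSE Combined Scores: combined hepatic side effect score as listed in the training data of the Drug Induced Liver Injury Prediction System (DILIps)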;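 as to HepSE cholecystitis: Cholecystitis-related hepatic side effect score drawn from the DILIps (drug-induced liver injury prediction) training data set; call rule not given here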;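 as to HepSE elevated liver function tests: hepatic side effect score for raised liver function tests, as recorded in the DILIps training set used for predicting drug-induced liver injury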;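 as to HepSE hepatitis: Hepatitis-related hepatic side effect score taken from the training data of DILIps, a prediction system for drug-induced liver injury; call rule not given here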;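 as to HepSE jaundice: Jaundice-related hepatic side-effect score drawn from the training data of the DILIps (drug-induced liver injury prediction system); call rule not given here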;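 as to HepSE liver fatty: hepatic side effect score for fatty liver, taken from the DILIps training set for predicting drug-induced liver injury; call rule not given here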
Hepatotoxicity [3] = tested on: Hepatotoxicity; remark: listed apart in the source;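 as to HepSE Combined Scores: combined hepatic side effect score as listed in the training data of the Drug Induced Liver Injury Prediction System (DILIps)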;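 as to HepSE cholecystitis: Cholecystitis-related hepatic side effect score drawn from the DILIps (drug-induced liver injury prediction) training data set; call rule not given here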;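 as to HepSE elevated liver function tests: hepatic side effect score for raised liver function tests, as recorded in the DILIps training set used for predicting drug-induced liver injury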;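 as to HepSE hepatitis: Hepatitis-related hepatic side effect score taken from the training data of DILIps, a prediction system for drug-induced liver injury; call rule not given here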;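 as to HepSE jaundice: Jaundice-related hepatic side-effect score drawn from the training data of the DILIps (drug-induced liver injury prediction system); call rule not given here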;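 as to HepSE liver fatty: hepatic side effect score for fatty liver, taken from the DILIps training set for predicting drug-induced liver injury; call rule not given here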
Hepatotoxicity [4] = tested on: Hepatotoxicity; remark: listed apart in the source;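 as to HepSE Combined Scores: combined hepatic side effect score as listed in the training data of the Drug Induced Liver Injury Prediction System (DILIps)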;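 as to HepSE elevated liver function tests: hepatic side effect score for raised liver function tests, as recorded in the DILIps training set used for predicting drug-induced liver injury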;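 as to HepSE hepatitis: Hepatitis-related hepatic side effect score taken from the training data of DILIps, a prediction system for drug-induced liver injury; call rule not given here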;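 as to HepSE jaundice: Jaundice-related hepatic side-effect score drawn from the training data of the DILIps (drug-induced liver injury prediction system); call rule not given here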;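 as to HepSE liver fatty: hepatic side effect score for fatty liver, taken from the DILIps training set for predicting drug-induced liver injury; call rule not given here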
Hepatotoxicity [5] = tested on: Hepatotoxicity; remark: listed apart in the source
Hepatotoxicity [6] = tested on: Hepatotoxicity; remark: listed apart in the source
Hepatotoxicity [7] = tested on: Hepatotoxicity; remark: listed apart in the source
Hepatotoxicity [8] = tested on: Hepatotoxicity; remark: listed apart in the source
Hepatotoxicity [9] = tested on: Hepatotoxicity; remark: listed apart in the source
Hepatotoxicity [10] = tested on: Hepatotoxicity; remark: listed apart in the source
Hepatotoxicity [11] = tested on: Hepatotoxicity; remark: listed apart in the source
Hepatotoxicity [12] = tested on: Hepatotoxicity; remark: listed apart in the source
Hepatotoxicity [13] = tested on: Hepatotoxicity; remark: listed apart in the source
Hepatotoxicity [14] = tested on: Hepatotoxicity; remark: listed apart in the source

| Compound | HepSE_jaundice (Hepatotoxicity [1]) | HepSE_liver fatty (Hepatotoxicity [2]) | HepSE_Combined Scores (Hepatotoxicity [3]) | HepSE_hepatitis (Hepatotoxicity [4]) | HepSE_elevated liver function tests (Hepatotoxicity [5]) | HepSE_bilirubinemia (Hepatotoxicity [6]) | HepSE_cholelithiasis (Hepatotoxicity [7]) | HepSE_hepatic necrosis (Hepatotoxicity [8]) | HepSE_cholecystitis (Hepatotoxicity [9]) | HepSE_liver function tests abnormal (Hepatotoxicity [10]) | HepSE_hepatic failure (Hepatotoxicity [11]) | HepSE_liver disease (Hepatotoxicity [12]) | HepSE_cirrhosis (Hepatotoxicity [13]) | HepSE_hepatomegaly (Hepatotoxicity [14]) | further results |
| --- | --- | --- | --- | --- | --- | --- | --- | --- | --- | --- | --- | --- | --- | --- | --- |
| CCc1nc(N)nc(N)c1-c1ccc(Cl)cc1 [PYRIMETHAMINE] | 0 | 0 | 0 | 0 | 0 | 0 | 0 | 0 | 0 | 0 | 0 | 0 | 0 | 0 |  |
| OCCOCCN1CCN(C2=Nc3ccccc3Sc3ccccc32)CC1 [QUETIAPINE] |  |  |  |  |  |  |  |  |  |  |  |  |  |  | HepSE_jaundice (Hepatotoxicity [1]; Liver): 0; HepSE_liver fatty (Hepatotoxicity [2]; Liver): 0; HepSE_Combined Scores (Hepatotoxicity [3]; Liver): 0; HepSE_hepatitis (Hepatotoxicity [4]; Liver): 0; HepSE_elevated liver function tests (Hepatotoxicity [5]; Liver): 0; HepSE_bilirubinemia (Hepatotoxicity [6]; Liver): 0; HepSE_cholelithiasis (Hepatotoxicity [7]; Liver): 0; HepSE_hepatic necrosis (Hepatotoxicity [8]; Liver): 0; HepSE_cholecystitis (Hepatotoxicity [9]; Liver): 0; HepSE_liver function tests abnormal (Hepatotoxicity [10]; Liver): 0; HepSE_hepatic failure (Hepatotoxicity [11]; Liver): 0; HepSE_liver disease (Hepatotoxicity [12]; Liver): 0; HepSE_cirrhosis (Hepatotoxicity [13]; Liver): 0; HepSE_hepatomegaly (Hepatotoxicity [14]; Liver): 0 |
| C=C[C@H]1C[N@@]2CC[C@H]1C[C@@H]2[C@@H](O)c1ccnc2ccc(OC)cc12 [QUINIDINE] | 1 | 0 | 3 | 1 | 0 | 0 | 0 | 0 | 0 | 1 | 0 | 0 | 0 | 0 |  |
| COCCCOc1ccnc(C[S+]([O-])c2nc3ccccc3[nH]2)c1C (configuration not stated) [RABEPRAZOLE] | 1 | 1 | 7 | 1 | 0 | 0 | 1 | 0 | 1 | 1 | 0 | 0 | 1 | 0 |  |
| O=C(c1ccc(OCCN2CCCCC2)cc1)c1c(-c2ccc(O)cc2)sc2cc(O)ccc12 [RALOXIFENE] | 0 | 0 | 1 | 0 | 0 | 0 | 1 | 0 | 0 | 0 | 0 | 0 | 0 | 0 |  |
| Cc1nc2ccc(CN(C)c3ccc(C(=O)N[C@@H](CCC(=O)O)C(=O)O)s3)cc2c(=O)[nH]1 [RALTITREXED] | 0 | 0 | 1 | 0 | 0 | 0 | 0 | 0 | 0 | 0 | 1 | 0 | 0 | 0 |  |
| CNC(=C[N+](=O)[O-])NCCSCc1ccc(CN(C)C)o1 [RANITIDINE] | 1 | 0 | 4 | 1 | 0 | 0 | 0 | 0 | 0 | 0 | 1 | 1 | 0 | 0 |  |
| COc1ccccc1OCC(O)CN1CCN(CC(=O)Nc2c(C)cccc2C)CC1 (configuration not stated) [RANOLAZINE] | 0 | 0 | 0 | 0 | 0 | 0 | 0 | 0 | 0 | 0 | 0 | 0 | 0 | 0 |  |
| C#CCN[C@@H]1CCc2ccccc21 [RASAGILINE] |  |  |  |  |  |  |  |  |  |  |  |  |  |  | HepSE_jaundice (Hepatotoxicity [1]; Liver): 1; HepSE_liver fatty (Hepatotoxicity [2]; Liver): 0; HepSE_Combined Scores (Hepatotoxicity [3]; Liver): 2; HepSE_hepatitis (Hepatotoxicity [4]; Liver): 0; HepSE_elevated liver function tests (Hepatotoxicity [5]; Liver): 0; HepSE_bilirubinemia (Hepatotoxicity [6]; Liver): 0; HepSE_cholelithiasis (Hepatotoxicity [7]; Liver): 0; HepSE_hepatic necrosis (Hepatotoxicity [8]; Liver): 0; HepSE_cholecystitis (Hepatotoxicity [9]; Liver): 0; HepSE_liver function tests abnormal (Hepatotoxicity [10]; Liver): 1; HepSE_hepatic failure (Hepatotoxicity [11]; Liver): 0; HepSE_liver disease (Hepatotoxicity [12]; Liver): 0; HepSE_cirrhosis (Hepatotoxicity [13]; Liver): 0; HepSE_hepatomegaly (Hepatotoxicity [14]; Liver): 0 |
| CCOc1cc(CC(=O)N[C@@H](CC(C)C)c2ccccc2N2CCCCC2)ccc1C(=O)O [REPAGLINIDE] | 1 | 0 | 2 | 1 | 0 | 0 | 0 | 0 | 0 | 0 | 0 | 0 | 0 | 0 |  |
| COC(=O)[C@H]1[C@H]2C[C@@H]3c4[nH]c5cc(OC)ccc5c4CCN3C[C@H]2C[C@@H](OC(=O)c2cc(OC)c(OC)c(OC)c2)[C@@H]1OC [RESERPINE] | 0 | 0 | 0 | 0 | 0 | 0 | 0 | 0 | 0 | 0 | 0 | 0 | 0 | 0 |  |
| CC1=C(/C=C/C(C)=C/C=C/C(C)=C/CO)C(C)(C)CCC1 [RETINOL] |  |  |  |  |  |  |  |  |  |  |  |  |  |  | HepSE_jaundice (Hepatotoxicity [1]; Liver): 0; HepSE_liver fatty (Hepatotoxicity [2]; Liver): 0; HepSE_Combined Scores (Hepatotoxicity [3]; Liver): 0; HepSE_hepatitis (Hepatotoxicity [4]; Liver): 0; HepSE_elevated liver function tests (Hepatotoxicity [5]; Liver): 0; HepSE_bilirubinemia (Hepatotoxicity [6]; Liver): 0; HepSE_cholelithiasis (Hepatotoxicity [7]; Liver): 0; HepSE_hepatic necrosis (Hepatotoxicity [8]; Liver): 0; HepSE_cholecystitis (Hepatotoxicity [9]; Liver): 0; HepSE_liver function tests abnormal (Hepatotoxicity [10]; Liver): 0; HepSE_hepatic failure (Hepatotoxicity [11]; Liver): 0; HepSE_liver disease (Hepatotoxicity [12]; Liver): 0; HepSE_cirrhosis (Hepatotoxicity [13]; Liver): 0; HepSE_hepatomegaly (Hepatotoxicity [14]; Liver): 0 |
| NC(=O)c1ncn([C@@H]2O[C@H](CO)[C@@H](O)[C@H]2O)n1 [RIBAVIRIN] | 0 | 1 | 4 | 0 | 0 | 1 | 0 | 0 | 0 | 0 | 1 | 0 | 0 | 1 |  |

— ChEMBL document CHEMBL1909294, “Translating clinical findings into knowledge in drug safety evaluation--drug induced liver injury prediction system (DILIps)” (PLoS Comput Biol, 2011)
